ChEMBL document CHEMBL4304808, “PROTAC Degradation of IRAK4 for the Treatment of Neurodegenerative and Cardiovascular Diseases” (ACS Med Chem Lett, 2019)

Assays:
[1] = target: T1, Interleukin-1 receptor-associated kinase 4 (Homo sapiens, UniProt Q9NWZ3); test: Inhibition of N-terminal GST-tagged human IRAK4 (2 to end residues) expressed in baculovirus infected Sf9 cells using Ser/Thr 7 peptide as substrate in presence of ATP after 1 hr by Z'-LYTE assay
T1 sequence (Q9NWZ3 whole entry): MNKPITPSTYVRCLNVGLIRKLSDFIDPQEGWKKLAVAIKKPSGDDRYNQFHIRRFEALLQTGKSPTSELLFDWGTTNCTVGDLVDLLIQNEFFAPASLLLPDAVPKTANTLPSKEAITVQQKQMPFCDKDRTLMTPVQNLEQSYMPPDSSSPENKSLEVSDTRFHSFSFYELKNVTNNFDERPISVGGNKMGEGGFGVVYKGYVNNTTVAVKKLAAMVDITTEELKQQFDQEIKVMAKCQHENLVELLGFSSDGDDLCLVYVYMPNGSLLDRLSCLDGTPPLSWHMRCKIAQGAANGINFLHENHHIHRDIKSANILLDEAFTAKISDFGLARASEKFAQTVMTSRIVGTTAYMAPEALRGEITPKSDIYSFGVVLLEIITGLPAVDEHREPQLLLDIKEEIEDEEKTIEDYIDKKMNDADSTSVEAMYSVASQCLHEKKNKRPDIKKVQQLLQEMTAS

[2] = target: T2, Protein cereblon/Interleukin-1 receptor-associated kinase 4 (Homo sapiens, UniProt Q9NWZ3+Q96SW2); test: Protac activity at E3 ubiquitin ligase/IRAK4 in human MCF7 cells assessed as IRAK4 degradation after 24 hrs by Western blot analysis; format: cell-based
Target sequence in this assay (Q96SW2 whole entry, one chain of several): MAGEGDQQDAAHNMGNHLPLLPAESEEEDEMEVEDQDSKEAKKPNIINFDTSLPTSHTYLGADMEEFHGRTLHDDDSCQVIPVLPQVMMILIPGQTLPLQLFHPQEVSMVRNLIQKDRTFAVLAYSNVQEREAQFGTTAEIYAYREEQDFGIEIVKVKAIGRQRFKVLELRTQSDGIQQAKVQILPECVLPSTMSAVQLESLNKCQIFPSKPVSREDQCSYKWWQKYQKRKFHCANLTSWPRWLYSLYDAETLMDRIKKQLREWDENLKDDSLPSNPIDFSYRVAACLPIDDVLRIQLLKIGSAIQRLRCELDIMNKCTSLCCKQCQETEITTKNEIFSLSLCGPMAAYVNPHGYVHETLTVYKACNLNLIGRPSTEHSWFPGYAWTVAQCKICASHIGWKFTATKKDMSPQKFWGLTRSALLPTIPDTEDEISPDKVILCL

[3] = target: T2, Protein cereblon/Interleukin-1 receptor-associated kinase 4; test: Protac activity at E3 ubiquitin ligase/IRAK4 in human MCF7 cells assessed as IRAK4 degradation after 24 hrs by Western blot analysis relative to control; format: cell-based
Target sequence in this assay (Q96SW2 whole entry, looked up, one chain of several): as the sequence (Q96SW2 whole entry, one chain of several) above

SMILES	IC50 [1] [nM]	DC50 [2] [nM]	Emax [3] [%]
COc1cc2nn(C3CCN(CCOCCOc4ccc5c(c4)C(=O)N(C4CCC(=O)NC4=O)C5=O)CC3)cc2cc1NC(=O)c1cccc(C(F)(F)F)n1 (stereo not given)	< 30	< 30	> 50
O=C1CCC(N2C(=O)c3ccc(OCCOCCOCCN4CCN(Cc5ccc6c(c5)nc(NC(=O)c5cccc(C(F)(F)F)c5)n6[C@H]5CC[C@@H](CO)CC5)CC4)cc3C2=O)C(=O)N1 (stereo not given in full)	< 30	< 30	> 70
O=C1CCC(N2C(=O)c3ccc(N4CCC(CN5CCN(Cc6ccc7c(c6)nc(NC(=O)c6cccc(C(F)(F)F)c6)n7[C@H]6CC[C@@H](CO)CC6)CC5)CC4)cc3C2=O)C(=O)N1 (stereo not given in full)	< 30	< 30	> 70
COc1cc2nn(C3CCN(CCOCCOc4ccc5c(c4)CN(C4CCC(=O)NC4=O)C5=O)CC3)cc2cc1NC(=O)c1cccc(C(F)(F)F)n1 (stereo not given)	< 30	< 30	> 50
O=C1CCC(N2C(=O)c3ccc(OC4CCC(CN5CCN(Cc6ccc7c(c6)nc(NC(=O)c6cccc(C(F)(F)F)c6)n7[C@H]6CC[C@@H](CO)CC6)CC5)CC4)cc3C2=O)C(=O)N1 (stereo not given in full)	< 30	30 to 100	> 70
